Test results reported in ChEMBL document CHEMBL5104195, “Discovery of Orally Bioavailable SOS1 Inhibitors for Suppressing KRAS-Driven Carcinoma” (J Med Chem, 2022).

Legend:
[1] = Plasma protein binding in monkey at 2 uM preincubated for 1 hr by balanced dialysis based LC-MS/MS analysis; conditions: rhesus monkey
[2] = Plasma protein binding in rat at 2 uM preincubated for 1 hr by balanced dialysis based LC-MS/MS analysis
in vivo [3] = conditions: ICR, mouse, po, 50 mg/kg
[4] = Plasma protein binding in dog at 2 uM preincubated for 1 hr by balanced dialysis based LC-MS/MS analysis
[5] = Elimination rate constant in ICR mouse at 50 mg/kg, po measured up to 24 hrs by LC-MS/MS analysis; conditions: in vivo
[6] = Plasma protein binding in mouse at 2 uM preincubated for 1 hr by balanced dialysis based LC-MS/MS analysis
[7] = MRT in ICR mouse at 50 mg/kg, po measured up to 24 hrs by LC-MS/MS analysis; conditions: in vivo
in vivo [8] = conditions: ICR, mouse, po, 50 mg/kg; remark: listed apart in the source
[9] = Toxicity in BALB/c nude mouse xenografted with human MIA PaCa-21 cells expressing KRAS G12C mutant assessed as animal death at 50 mg/kg, po qd measured on day 21; conditions: in vivo, 504 h
in vivo [10] = conditions: ICR, mouse, po, 50 mg/kg; remark: listed apart in the source
[11] = Half life in ICR mouse at 50 mg/kg, po measured up to 24 hrs by LC-MS/MS analysis; conditions: in vivo
[12] = Toxicity in BALB/c nude mouse xenografted with human MIA PaCa-21 cells expressing KRAS G12C mutant assessed as weight loss at 50 mg/kg, po qd measured on day 21; conditions: in vivo
SOS1-KRAS = SOS1-KRAS (Homo sapiens, UniProt Q07889); assay: Inhibition of N-terminal His6-tagged human recombinant SOS1(564 to 1049 residues)/human recombinant KRAS G12C mutant incubated for 60 mins by HTRF assay
[13] = target: T1, Son of sevenless homolog 1 (Homo sapiens, UniProt Q07889); assay: Inhibition of SOS1 in human DLD-1 cells assessed as reduction in ERK phosphorylation incubated for 1 hr by fluorescence assay; type: cell-based
T1 sequence (Q07889 whole entry): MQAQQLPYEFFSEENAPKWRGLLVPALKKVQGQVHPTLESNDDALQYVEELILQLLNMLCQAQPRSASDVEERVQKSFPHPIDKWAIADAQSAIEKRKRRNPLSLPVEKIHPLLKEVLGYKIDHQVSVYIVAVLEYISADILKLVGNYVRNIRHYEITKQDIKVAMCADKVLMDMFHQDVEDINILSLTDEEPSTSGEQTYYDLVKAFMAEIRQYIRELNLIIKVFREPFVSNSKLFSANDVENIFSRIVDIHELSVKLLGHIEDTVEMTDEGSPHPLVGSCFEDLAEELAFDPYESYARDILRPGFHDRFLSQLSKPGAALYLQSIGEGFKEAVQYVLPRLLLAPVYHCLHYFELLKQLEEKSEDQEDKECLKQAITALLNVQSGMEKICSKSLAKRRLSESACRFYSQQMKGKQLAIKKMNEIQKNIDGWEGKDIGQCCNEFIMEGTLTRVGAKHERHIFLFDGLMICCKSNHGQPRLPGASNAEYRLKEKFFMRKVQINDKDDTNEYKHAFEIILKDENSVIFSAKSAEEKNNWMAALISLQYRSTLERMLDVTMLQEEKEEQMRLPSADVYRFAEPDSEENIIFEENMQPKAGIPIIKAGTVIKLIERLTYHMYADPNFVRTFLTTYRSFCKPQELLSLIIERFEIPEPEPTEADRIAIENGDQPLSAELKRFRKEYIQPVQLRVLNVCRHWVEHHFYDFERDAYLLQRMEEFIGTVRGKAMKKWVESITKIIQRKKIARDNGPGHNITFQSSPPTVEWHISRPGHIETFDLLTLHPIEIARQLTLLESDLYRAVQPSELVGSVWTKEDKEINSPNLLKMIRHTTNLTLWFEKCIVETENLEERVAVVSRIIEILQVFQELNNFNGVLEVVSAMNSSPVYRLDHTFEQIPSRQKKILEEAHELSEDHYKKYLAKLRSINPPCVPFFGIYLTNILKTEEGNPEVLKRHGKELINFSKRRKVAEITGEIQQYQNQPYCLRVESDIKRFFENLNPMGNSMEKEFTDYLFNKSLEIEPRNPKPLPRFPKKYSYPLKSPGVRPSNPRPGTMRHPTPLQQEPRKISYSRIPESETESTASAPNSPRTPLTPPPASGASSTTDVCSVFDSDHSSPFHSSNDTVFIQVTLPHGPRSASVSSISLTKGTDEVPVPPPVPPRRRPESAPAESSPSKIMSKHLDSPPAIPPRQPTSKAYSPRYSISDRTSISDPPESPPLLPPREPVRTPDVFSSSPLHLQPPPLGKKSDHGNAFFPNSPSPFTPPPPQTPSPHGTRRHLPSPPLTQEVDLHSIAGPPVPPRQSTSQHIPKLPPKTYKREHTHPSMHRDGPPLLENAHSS

Tmax at 24 h (in vivo [3]) [h]	k el at 24 h [5] [s⁻¹]	MRT at 24 h [7] [h]	Cmax at 24 h (in vivo [8]) [ng/mL]	AUC at 24 h (in vivo [10]) [ng·h/mL]	half-life at 24 h [11] [h]	Compound	fraction unbound at 1 h, 2 µM [1]	fraction unbound at 1 h, 2 µM [2]	fraction unbound at 1 h, 2 µM [4]	fraction unbound at 1 h, 2 µM [6]	Activity [9]	Activity [12]	IC50 (SOS1-KRAS) [nM]	IC50 [13] [nM]
5.67	2.64e-05	8.31	433	5420	7.23	COCCN1CCN2c3cc4c(N[C@H](C)c5cccc(C(F)F)c5F)nc(C)nc4cc3OCC[C@H]2C1	–	–	–	–	–	–	–	–
–	–	–	–	–	–	Cc1nc(N[C@H](C)c2cccc(C(F)F)c2F)c2cc3c(cc2n1)OC[C@H]1CN(C(=O)C2(C#N)CC2)CCN31	–	–	–	–	–	–	8.4	13
0.333	0.000135	1.78	1580	3180	1.47	Cc1nc(N[C@H](C)c2cccc(C(F)F)c2F)c2cc3c(cc2n1)OCC[C@H]1CN(C(=O)c2cccnc2)CCN31	–	–	–	–	–	–	–	–
3	2.61e-05	7.64	645	10700	7.39	Cc1nc(N[C@H](C)c2cccc(C(F)F)c2F)c2cc3c(cc2n1)OCC[C@H]1CN(CC2COC2)CCN31	–	–	–	–	–	–	–	–
3.5	9.78e-06	9.58	191	3250	20	Cc1nc(N[C@H](C)c2cccc(C(F)F)c2F)c2cc3c(cc2n1)OCC[C@H]1CN(C)CCN31	–	–	–	–	–	–	–	–
0.38	0.000142	1.7	885	1610	1.36	Cc1nc(N[C@H](C)c2cccc(C(F)F)c2F)c2cc3c(cc2n1)OCC[C@H]1CN(C(=O)C2COC2)CCN31	–	–	–	–	–	–	–	–
–	–	–	–	–	–	Cc1nc(N[C@H](C)c2cccc(C(F)F)c2F)c2cc3c(cc2n1)OCC[C@H]1CN(CC#N)CCN31	–	–	–	–	–	–	–	70

Compound	Tmax at 24 h (in vivo [3]) [h]	k el at 24 h [5] [s⁻¹]	MRT at 24 h [7] [h]	Cmax at 24 h (in vivo [8]) [ng/mL]	AUC at 24 h (in vivo [10]) [ng·h/mL]	half-life at 24 h [11] [h]	fraction unbound at 1 h, 2 µM [1]	fraction unbound at 1 h, 2 µM [2]	fraction unbound at 1 h, 2 µM [4]	fraction unbound at 1 h, 2 µM [6]	Activity [9]	Activity [12]	IC50 (SOS1-KRAS) [nM]	IC50 [13] [nM]
Cc1nc(N[C@H](C)c2cccc(C(F)F)c2F)c2cc3c(cc2n1)OCC[C@H]1CN(C(=O)[C@@H]2CCOC2)CCN31	0.417	8.39e-05	2.89	1450	7490	2.29	0.001	0.001	0.001	0.006	Non-Toxic	Non-Toxic	–	–
Cc1nc(N[C@H](C)c2cccc(C(F)F)c2F)c2cc3c(cc2n1)OCC[C@H]1CN(c2ccnn2C)CCN31	0.33	7.36e-05	4.47	4690	48800	2.61	0.015	0.107	0.01	0.079	Non-Toxic	Non-Toxic	–	–
